Patent US9688816B2, “Polyetherimide compositions and methods for the manufacture and use thereof” (SABIC Global Technologies B.V., priority 2011, dated 2017)
“Also recorded” adds a separate entry of the source.

Tests used:
[1] = test system: alpha or beta in vitro estradiol receptors; assay: competitive radio-ligand binding assay, statements that do not separate alpha and beta; parameters: species or system human; conditions: alpha or beta receptor not separated; for estradiol binding / estradiol displacement: highest concentration 2.5×E-4 M
[2] = target: recombinant human estradiol receptors (rhER) alpha (α) (Homo sapiens (Human), UniProt P03372); assay: competitive radio-ligand binding assay, rhER alpha; conditions: at as high as 2.5×E-4 molar concentration
Sequence of recombinant human estradiol receptors (rhER) alpha (α) (P03372 whole entry): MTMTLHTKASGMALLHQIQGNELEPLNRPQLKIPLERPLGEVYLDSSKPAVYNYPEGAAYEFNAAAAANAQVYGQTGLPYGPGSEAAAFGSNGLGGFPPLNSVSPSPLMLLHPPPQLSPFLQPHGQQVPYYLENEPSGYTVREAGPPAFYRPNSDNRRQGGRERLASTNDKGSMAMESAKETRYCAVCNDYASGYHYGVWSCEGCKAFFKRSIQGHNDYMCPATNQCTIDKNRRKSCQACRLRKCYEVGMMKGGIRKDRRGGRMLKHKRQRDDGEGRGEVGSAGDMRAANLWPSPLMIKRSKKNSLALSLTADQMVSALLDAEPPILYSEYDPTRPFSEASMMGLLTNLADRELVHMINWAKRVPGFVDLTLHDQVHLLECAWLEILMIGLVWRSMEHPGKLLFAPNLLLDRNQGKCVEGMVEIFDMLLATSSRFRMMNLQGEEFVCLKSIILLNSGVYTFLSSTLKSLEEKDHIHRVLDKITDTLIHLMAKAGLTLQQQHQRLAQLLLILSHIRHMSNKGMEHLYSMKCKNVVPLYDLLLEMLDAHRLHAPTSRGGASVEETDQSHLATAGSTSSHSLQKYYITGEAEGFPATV

[3] = target: recombinant human estradiol receptors (rhER) beta 1 (β1) (Homo sapiens (Human), UniProt Q92731); assay: competitive radio-ligand binding assay, rhER beta 1; conditions: at as high as 2.5×E-4 molar concentration
Sequence of recombinant human estradiol receptors (rhER) beta 1 (β1) (Q92731 whole entry): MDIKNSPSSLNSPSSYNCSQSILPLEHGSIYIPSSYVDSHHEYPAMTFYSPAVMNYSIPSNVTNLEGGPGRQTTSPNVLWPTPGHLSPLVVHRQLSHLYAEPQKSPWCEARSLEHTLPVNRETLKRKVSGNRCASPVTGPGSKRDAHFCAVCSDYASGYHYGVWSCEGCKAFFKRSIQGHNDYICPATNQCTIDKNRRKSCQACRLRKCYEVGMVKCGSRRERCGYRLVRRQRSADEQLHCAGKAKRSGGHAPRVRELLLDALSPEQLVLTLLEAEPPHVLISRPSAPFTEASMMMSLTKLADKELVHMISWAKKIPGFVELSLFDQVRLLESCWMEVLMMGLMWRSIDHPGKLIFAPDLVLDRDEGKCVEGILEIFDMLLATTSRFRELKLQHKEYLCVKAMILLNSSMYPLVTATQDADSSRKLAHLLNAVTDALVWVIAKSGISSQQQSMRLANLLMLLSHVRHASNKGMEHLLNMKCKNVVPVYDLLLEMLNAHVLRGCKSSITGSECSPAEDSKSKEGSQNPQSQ

Row | Molecule | estradiol binding / estradiol displacement [1] | further results
1 | C[C@]12CC[C@@H]3c4ccc(O)cc4CC[C@H]3[C@@H]1CC[C@@H]2O [A, 17b-estradiol, reference compound] | binds at a very low concentration | 
2 | CC(C)(c1ccccc1)c1ccc(O)cc1 [B, p-Cumyl Phenol, reference compound] | displace estradiol at low concentrations | 
3 | CC(c1ccccc1)(c1ccc(O)cc1)c1ccc(O)cc1 [D, Bisphenol Acetophenone, reference compound] | displace estradiol at low concentrations | 
4 | Cc1cc(C(C)(C)c2cc(C)c(O)c(C)c2)cc(C)c1O [Example 1, Tetra Methyl BPA] | no estradiol binding | 
5 | Oc1ccccc1 [Example 2, Phenol] | no estradiol binding | IC50 ([1]; highest concentration tested 2.5×E-4 M): ≥ 250 µM
6 | O=C1c2ccccc2C(c2ccc(O)cc2)(c2ccc(O)cc2)N1c1ccccc1 [Example 3, N-Phenyl Phenolphthalein Bisphenol] | no estradiol binding | estradiol displacement at the alpha receptor [2]: no detectible estradiol displacement; estradiol displacement at the beta receptor [3]: no detectible estradiol displacement; estradiol binding / estradiol displacement ([1]; listed as N-phenyl phenyl phenolphthalein): no displacement
7 | Oc1cccc(O)c1 [Example 4, Resorcinol] | no estradiol binding | estradiol displacement at the alpha receptor [2]: no detectible estradiol displacement; estradiol displacement at the beta receptor [3]: no detectible estradiol displacement
8 | CC(C)(C)c1cc(O)c(C(C)(C)C)cc1O [Example 7, Di t-Butyl Hydroquinone] | no estradiol binding | estradiol displacement at the alpha receptor [2]: no displacement; estradiol displacement at the beta receptor [3]: no displacement; estradiol binding / estradiol displacement ([1]; listed as di-tert butyl hydroquinone): no displacement
9 | Cc1cc(O)ccc1O [Example 8, Methyl Hydroquinone] | no displacement; also recorded: no estradiol binding | estradiol displacement at the beta receptor [3]: no alpha or beta estradiol displacement
10 | Oc1ccc(Oc2ccc(O)cc2)cc1 [Example C, Dihydroxy Diphenyl Ether, reference compound] | displace estradiol at low concentrations | 
11 | Cc1cc(C2(c3ccc(O)c(C)c3)CCCCC2)ccc1O [G, Dimethyl Cyclohexyl Bisphenol, reference compound] | displace estradiol at low concentrations | 
12 | CC(C)(c1ccc(O)cc1)c1cccc(C(C)(C)c2ccc(O)cc2)c1 [K, Bisphenol M, reference compound] | displace estradiol at low concentrations | 
13 | O=C1OC(c2ccc(O)cc2)(c2ccc(O)cc2)c2ccccc21 [O, Phenolphthalein, reference compound] | undesirable estradiol displacement at low concentration | 
14 | Benzophenone bisphenol [reference compound] | undesirable estradiol displacement at low concentration | 
15 | Biphenol [Example 6] | no estradiol binding | estradiol displacement at the alpha receptor [2]: no displacement
16 | Bis Hydroxy Phenyl Menthane [reference compound] | displace estradiol at low concentrations | 
17 | Dimethyl Acetophenone Bisphenol [reference compound] | displace estradiol at low concentrations | 
18 | Diphenolic Acid Methyl Ester [F, reference compound] | displace estradiol at low concentrations | 
19 | Spiro Biindane Bisphenol [Example 5] | no displacement; also recorded: no estradiol binding | 
